Tests used:
Test in all cases: Indoor herbicide activity determination, Seed Treatment; pre-emergence (soil spray)
Type in all cases: in vivo
Aegilops tauschii = conditions: 60 g a.i./ha, read-out: Herbicidal activities (inhibition rate) Aegilops tauschii
Source text: (§1) The testing method for herbicide activity of the compound of the present invention was as follows:
(§2) Seed Treatment; pre-emergence: quantitative seeds of gramineous weeds (Echinochloa crusgalli, Eleusine indica, Digitaria sanguinalis, Alopecurus japonicus, Beckmannia syzigachne, Leptochloa chinensis, Polypogon fugax, Alopecurus aequalis, Lolium multiflorum, Poa annua, Aegilops tauschii, Avena fatua, Alopecurus myosuroides, Alopecurus japonicus and Alopecurus aequalis), broad-leaved weeds (Eclipta prostrata, Amaranthus retroflexus, Rorippa indica, Malachium aquaticum, Veronica polita, Conyza canadensis, Sesbania cannabina, Sagittariatrifolia and Schoenoplectiella juncoides), and Cyperus iria were sown in plastic pots having a diameter of 7 cm and holes at the bottom and filled with nutrient soil (sandy soil, pH 6.1, organic matter 1%) respectively, the seeds were covered with an appropriate amount of soil after being sown, then the soil was wetted with water from the bottom, the seeds were cultured in a constant-temperature illuminated culture room for 24 h, and the soil was sprayed by using a 3WP-2000 traveling spray tower produced by the Nanjing Institute of Agricultural Mechanization of the Ministry of Agriculture, where a rotational speed of a main shaft was 96 mm/r, a spray height was 300 mm, an effective spraying range of a nozzle was 350 mm, a spray area was 0.35 m^2, and a flow rate at the nozzle was 390 mL/min.
(§3) Post-emergence: an appropriate quantity of seeds of gramineous weeds (Echinochloa crusgalli, Eleusine indica, Digitaria sanguinalis, Alopecurus japonicus, Beckmannia syzigachne, Leptochloa chinensis, Polypogon fugax, Alopecurus aequalis, Lolium multiflorum, Poa annua, Aegilops tauschii, Avena fatua, Alopecurus myosuroides, Alopecurus japonicus and Alopecurus aequalis), broad-leaved weeds (Eclipta prostrata, Amaranthus retroflexus, Rorippa indica, Malachium aquaticum, Veronica polita, Conyza canadensis, Sesbania cannabina, Sagittariatrifolia and Schoenoplectiella juncoides), and Cyperus iria were sown in plastic pots having a diameter of 7 cm and holes at the bottom and filled with nutrient soil (sandy soil, pH 6.1, organic matter 1%) respectively, the seeds were covered with an appropriate amount of soil after being sown, then the soil was wetted with water from the bottom, the seeds were cultured in a constant-temperature illuminated culture room until a 2-4 leaf stage, and stems and leaves underwent spray treatment. After the treatment, the test materials were placed in a laboratory and cultured in the constant-temperature illuminated culture room after the liquid was naturally dry in the shade, and results were determined 21 days later. Inhibition rate of fresh weight % = (1−(fresh weight of treated plants)/(fresh weight of control plants)) × 100% [formula]

Alopecurus japonicus = conditions: Dosage 120 g a.i./ha
Source text: as §1, §2, §3

Alopecurus myosuroides = conditions: Dosage 120 g a.i./ha
Source text: as §1, §2, §3

Cyperus iria = conditions: 60 g a.i./ha, read-out: Herbicidal activities (inhibition rate) Cyperus iria
Source text: as §1, §2, §3

Eclipta prostrata = conditions: 60 g a.i./ha, read-out: Herbicidal activities (inhibition rate) Eclipta prostrata
Source text: as §1, §2, §3

Eleusine indica = conditions: Dosage 120 g a.i./ha
Source text: as §1, §2, §3

Leptochloa chinensis = conditions: Dosage 120 g a.i./ha
Source text: as §1, §2, §3

Lolium multiflorum = conditions: Dosage 120 g a.i./ha
Source text: as §1, §2, §3

Compound | inhibition at 60 g/ha (Aegilops tauschii) [%] | Herbicidal activities, Alopecurus japonicus (inhibition rate class) (Alopecurus japonicus) | Herbicidal activities, Alopecurus myosuroides (inhibition rate class) (Alopecurus myosuroides) | inhibition at 60 g/ha (Cyperus iria) [%] | inhibition at 60 g/ha (Eclipta prostrata) [%] | Herbicidal activities, Eleusine indica (inhibition rate class) (Eleusine indica) | Herbicidal activities, Leptochloa chinensis (inhibition rate class) (Leptochloa chinensis) | Herbicidal activities, Lolium multiflorum (inhibition rate class) (Lolium multiflorum)
C=C[C@]1(C(=O)N[C@H]2C[C@@H](C(=O)O[C@H](C)COC)C2)CC(c2cc(F)cc(Cl)c2)=NO1 [I-33] | 60 to 80 | A (A indicates that the inhibition rate was greater than or equal to 80% to 100%) | A (A indicates that the inhibition rate was greater than or equal to 80% to 100%) | 60 to 80 | 80 to 100 | A (A indicates that the inhibition rate was greater than or equal to 80% to 100%) | A (A indicates that the inhibition rate was greater than or equal to 80% to 100%) | A (A indicates that the inhibition rate was greater than or equal to 80% to 100%)
C=C[C@]1(C(=O)N[C@H]2C[C@@H](C(=O)O[C@@H](C)COC)C2)CC(c2cc(F)cc(Cl)c2)=NO1 [I-34] | 60 to 80 | B (B indicates that the inhibition rate was greater than or equal to 60% to less than 80%) | A (A indicates that the inhibition rate was greater than or equal to 80% to 100%) | 60 to 80 | 80 to 100 | A (A indicates that the inhibition rate was greater than or equal to 80% to 100%) | A (A indicates that the inhibition rate was greater than or equal to 80% to 100%) | B (B indicates that the inhibition rate was greater than or equal to 60% to less than 80%)
C=C[C@]1(C(=O)N[C@H]2C[C@@H](C(=O)OCC3CC3)C2)CC(c2cc(F)cc(Cl)c2)=NO1 [I-35] | 60 to 80 | A (A indicates that the inhibition rate was greater than or equal to 80% to 100%) | A (A indicates that the inhibition rate was greater than or equal to 80% to 100%) | 60 to 80 | 60 to 80 | A (A indicates that the inhibition rate was greater than or equal to 80% to 100%) | A (A indicates that the inhibition rate was greater than or equal to 80% to 100%) | A (A indicates that the inhibition rate was greater than or equal to 80% to 100%)
C=C[C@]1(C(=O)N[C@H]2C[C@@H](C(=O)OCC(F)(F)C(F)F)C2)CC(c2cc(F)cc(OC(F)(F)F)c2)=NO1 [I-64] | 60 to 80 | A (A indicates that the inhibition rate was greater than or equal to 80% to 100%) | A (A indicates that the inhibition rate was greater than or equal to 80% to 100%) | – | 80 to 100 | B (B indicates that the inhibition rate was greater than or equal to 60% to less than 80%) | A (A indicates that the inhibition rate was greater than or equal to 80% to 100%) | A (A indicates that the inhibition rate was greater than or equal to 80% to 100%)
C=C[C@]1(C(=O)N[C@H]2C[C@@H](C(=O)OCCOCC)C2)CC(c2cc(F)cc(OC(F)(F)F)c2)=NO1 [I-65] | 80 to 100 | A (A indicates that the inhibition rate was greater than or equal to 80% to 100%) | A (A indicates that the inhibition rate was greater than or equal to 80% to 100%) | – | 60 to 80 | B (B indicates that the inhibition rate was greater than or equal to 60% to less than 80%) | A (A indicates that the inhibition rate was greater than or equal to 80% to 100%) | A (A indicates that the inhibition rate was greater than or equal to 80% to 100%)

Source: patent EP4722201A1, “3-PHENYLISOXAZOLINE-5-CARBOXAMIDE COMPOUND, AND PREPARATION METHOD THEREFOR, HERBICIDAL COMPOSITION THEREOF AND USE THEREOF” (Jiangsu Flag Chemical Industry Co., Ltd, priority 2023, dated 2024)
